Tests used:
[1] = tested on: stem cells of bone marrow; test: Hemopoietic system: CFU-S in mice treated with cyclophosphamide; assay type: in vivo; conditions: mice treated with CY with or without PK
From the text: Effects of PK on hemopoietic system were investigated.

peritoneal macrophage = test: Phagocytosis of peritoneal macrophage (chick red blood cells); assay type: in vivo, mice; conditions: macrophages with phagocytized chick red blood cells per 100; PK 25 mg/kg i.p. daily 5 days, CY 4.5 mg/kg
Experimental: (§1) Male mice weight 18-20 g were used in the experiments and were divided into treated (PK) and control groups. The dosage of PK was 25 mg/kg injected intraperitoneally. The control mice were injected with same volume of normal saline. These injections were repeated daily for 5 days, both treated and control group were injected intraperitoneally with CY. The dosage of CY is 4.5 mg/kg.
Added 0.02 ml of 5% washed chick red blood cell suspension to 0.5 ml of the peritoneal exudates. Shook gently to mix and incubate at 37° C. for 5 minutes. Dipped two cover slips, closed to each other, in the above mixture and incubated for 30 minutes for the migration of the macrophages along the cover slips, fixed and stained with Sharma stain. Examined microscopically for:
Phagocytic rate—number of macrophages with phagocytized chick red blood cells per 100 macrophages counted. Concentration of PK and CY is the same as Example 2. Pharmacological effects are as illustrated by the following table.

white blood cells = test: White blood cells assay; assay type: in vivo, mice; conditions: time of treatment 10 days
Experimental: as §1
Action of PK and CY on white blood cells was investigated by means of white blood cells assay. PK protected white blood cells and phagocytosis from the killing effect of CY. The dosage of PK and CY is the same as in Example 4. Time of treatment is 10 days.

lymphocytes = test: Lymphoblastic transformation, 3H-TdR liquid scintillation assay; assay type: in vivo, mice; conditions: 3H-TdR incorporation; PK and CY as in Example 4
Experimental: By means of ^3H-TdR liquid scintillation assay technique, the action of PK on lymphoblastic transformation was investigated method:
(1) Experimental procedure of animal is the same as in Example 4.
(2) Lemphoblastic transformation test:
I. Reagents and Conditions for Cell Culture
a. Culture media—RPMI 1640, medium 199 minimal essential medium (Eagle).
b. Buffer—Hepes buffer, the final concentration at 37° C. was 25 mM, to maintain the pH of the medium at 7.31.
c. Serum—generally 15-205 fetal bovine serum was incorporated, for lymphocytes from mice, 5% was used.
d. Gaseous phase—5% CO2 in air.
e. Cell concentration—generally 1-2 c 10^6/ml.
f. Stimulants—20 μl/ml for phytohemagglutinin containing polysaccharide (PHA-M) or 10 μl/ml for polysaccharide-free purified phytohemagglutinin (PHA-P).
II. Measured by Liquid Scintillation
a. The conditions of cell culture are same as above. ^3H-TdR was added after 48 hours of incubation at a final concentration of 1 μCi/ml and continued the incubation for 24 hours.
b. Washed the cells twice with cold normal saline and the erythrocytes were lysed. The intact lymphocytes were again washed once with cold saline. Spun down the lymphocytes and added 2 ml of 10% trichloroacetic acid to precipitate the protein. Washed twice with normal saline. […]
c. Added 4 ml of scintillation fluid to 0.1 ml of the final sample and counted in a liquid scintillation counter. […]

Interleukin-2 (rIL-2) = test: Effect on Interleukin-2; assay type: in vivo, mice; conditions: PK and CY as in Example 4
From the text: The method of determination rIL-2 was as same as Example 4.

[2] = Radiolabelled nanoparticle experiment: circulation of 3H-HHT in blood; assay type: in vivo, mice
Experimental: Mice were used in this experiment. […]
After injection of radioactive ^3H-HHT or PK-^3H-HHT-NP, blood-associated radioactivity was determined.
1 ml of sample of blood was ultracentrifuged at 100,000×g for 1 hour. After discarding the supernatant, the sediment was dispersed again by mechanical stirring in 1.5 ml of distilled water. 100 μl of the sediment or supernatant were then added to 10 ml of scintillation liquid solution. After weighing, the radioactivity of the tissue samples was measured by a scintillation counter.

| SMILES | Mean (CFU-S ± SD) [1] | Phagocytic (rate ± SD) (peritoneal macrophage) | Phagocytic (rate ± SD) (white blood cells) | CPM ± SD (lymphocytes) | IL-2 (U/ml) (Interleukin-2 (rIL-2)) | Circulation 3H-HHT in blood ([2]; 1 hour after administration) | Circulation 3H-HHT in blood ([2]; 8 hours after administration) | Circulation 3H-HHT in blood ([2]; 24 hours after administration) |
| --- | --- | --- | --- | --- | --- | --- | --- | --- |
| O=P1(N(CCCl)CCCl)NCCCO1 (centres unmarked) [CY, cyclophosphamide] | 7.6 ± 1.1 | 8.5 ± 0.90 | 6.0 ± 0.70 | 600 ± 65 CPM | 47.5 ± 5.5 U/ml |  |  |  |
| COC(=O)C[C@](O)(CCCC(C)(C)O)C(=O)O[C@@H]1C(OC)=C[C@]23CCCN2CCc2cc4c(cc2[C@H]13)OCO4 [^3H-HHT (free)] |  |  |  |  |  | 2400 cpm | 90 cpm | 60 cpm |

Source: patent US20040192641A1, “Special preparation of anticancer drugs made by novel nanotechnology” (priority 2003, published 2004)
